Consider one compound from patent publication US20240189289A1, “INHIBITORS OF EPHB3 SIGNALING” (The Brigham and Women`s Hospital, Inc., priority 2021, published 2024).

In one experiment the test system is EAE in C57BL/6 mice. Description: EAE in C57BL/6 mice (MOG35-55). The class given is in vivo, mouse. How it is done: EAE. EAE was induced in 8-10 week old female C57BL/6 or NOD by subcutaneous immunization with 150 μg MOG35-55 (#110582, Genemed Synthesis) emulsified in 200 μL of complete Freund's adjuvant per mouse, followed by administration of 200 ng pertussis toxin (#180, List biological Laboratories) on days 0 and 2 as described. […] EAE was assessed as follows: 0, no signs of disease; 1, loss of tone in the tail; 2, hind limb paresis; 3, hind limb paralysis; 4, tetraplegia; 5, moribund.
Mononuclear cells. Mononuclear cells, including astrocytes, monocytes, and microglia, were isolated from the CNS as described. Briefly, mice were perfused with 1×PBS and the isolated brain and spinal cords were homogenized with a razor blade, digested in 0.66 mg/mL papain (#P4762, Sigma-Aldrich) for 15 minutes at 37° C. and subsequently 15 minutes with 0.66 mg/mL Collagenase D (#11088858001, Roche) and 8 U/mL DNase I (#90083, Thermo Fisher Scientific). Samples where then homogenized and filtered through a 70 µm cell strainer and resuspended in 30% Percoll TM solution (#17-5445-01, GE Healthcare) overlayed by 1×PBS for myelin removal. Isolated mononuclear CNS cells were washed with 1×PBS and stained with fluorochrome-conjugated antibody to FITC anti-CD11b (Cat #11-0112-85, eBioscience), APC anti-CD45 (Cat #17-0451-83, eBioscience), BV421 anti-Ly-6C (Cat #128031, Biolegend), PE anti-mouse CD45R/B220 (Cat #553089, BD Biosciences), PE anti-CD140a (Cat #12-1401-81, eBioscience), PE anti-CD105 (Cat #12-1051-82, eBioscience), PE anti-04 (Cat #FAB1326P, R&D), PE anti-Ly-6G (Cat #127608, BioLegend) and PE anti-mouse TER-119 (Cat #116207, BioLegend). Microglia were sorted as CD11b^+CD45^lo Ly6C1^lo, inflammatory monocytes were considered as CD45^hiCD11b^+Ly6C1^hi. Astrocytes were sorted as CD11b^loCD45^lo Ly6C^loCD105^lo CD140a^lo CD11b^loTer119^loCD19^lo after the exclusion of erythrocytes, lymphocytes, microglia, oligodendrocytes, and monocytes. FACSAria IIU (BD Biosciences) was used for cell sorting.
Analysis of T cells. For T-cell flow cytometry analysis, CNS single-cell suspensions or splenocytes were stimulated with 50 ng/mL phorbol 12-myristate 13-acetate (PMA, #P1585, Sigma-Aldrich), 1 μM ionomycin (#I9657, Sigma-Aldrich), GolgiSTOP and (#554724, BD Biosciences, 1:1500) GolgiPLUG (#555029, BD Biosciences, 1:1500) in RPMI 1640 medium (#11875119, Life Technologies) containing 10% FBS (#10438026, GIBCO), penicillin/streptomycin (#15140122, GIBCO, 1:100) for 4 h at 37° C. in a 5% CO2 incubator. Following stimulation, T cells were stained with antibodies against surface markers, and thereafter fixed and stained with antibody against intracellular target protein with an intracellular antibody labeling kit following its instructions (#00-5523, eBioscience).
RNA-sequencing. Sorted astrocytes or microglia were re-suspended in extraction buffer of Picopure RNA isolation kit (KIT0204, Thermo Fisher) and after 30 min incubation at 42° C. samples were extracted following manufacturer's instructions with on-column DNase I digestion (QIAGEN, #79254). RNA was suspended in 10 μl of nuclease free water and 5 μl were sent for SMARTseq sequencing by the Broad Technology Labs and the Broad Genomics Platform. Processed RNA-Seq data was filtered, removing genes with low read counts. Read counts were normalized using TMM normalization and CPM (counts per million) were calculated to create a matrix of normalized expression values.
H&E, LFB and silver staining. Transverse sections from lumbar spinal cords of EAE mice at the end of the experiment were fixed in 4% paraformaldehyde, pH 7.4, embedded in paraffin and cut at 10-μm thickness. Sections were stained with Hematoxylin and Eosin, Luxol fast blue, or silver nitrate. Images were acquired by using a Zeiss Axioskop2 plus microscope with AxioCam HRC and AxioVision software and analyzed by using ImageJ software. […]

Experiment [1] concerns neonatal murine astrocytes. Description: Neonatal murine astrocytes activated with TNFα and IL-1β: qPCR and ELISA. The class given is cell-based, mouse. How it is done:
Mouse primary astrocyte cultures. […] The cell suspension was then cultured at 37° C. in humidified 5% CO2 on poly-L-Lysine (#P4707, Sigma-Aldrich) pre-coated cell culture flasks. Medium was replaced every 3-5 days. The cells reached confluence after 7-10 days. Microglia were separated by shaking the glia culture at 225 rpm at 37° C. for at least 3 h and washing extensively with 1×PBS. Astrocytes were detached by mild trypsinization with Trypsin-EDTA (0.05%) at 37° C. and plated. […] Both cell types were then cultured separately for downstream procedures. […] Finally, microglia and astrocytes of each condition where magnetically separated as before and lysed for downstream gene expression analysis.
RNA isolation, cDNA synthesis and qPCR. […] Data were analyzed by the ddCt method by normalizing the expression of each gene to GAPDH and HPRT for mouse and GAPDH for human and then to the control group. All probes are listed below. • Mouse: EphB3 Mm00802553_m1, Ccl2 Mm00441242_m1, Csf2 Mm01290062_m1, Nos2 Mm00440502_m1, Tnf Mm00443258 m1, Il1b Mm00434228_m1, 116 Mm00446190_m1, GAPDH Mm99999915_g1. • Human: CCL2 Hs00234140_m1, CSF2 Hs00929873 ml, NOS2 Hs01075529_m1, TNF • Hs00174128_m1, IL6 Hs00985639_m1, IL1b Hs01555410_m1, GAPDH Hs02758991_g1.

The mark [2] stands for this setting: 20 mg/kg from the peak of the disease.
[3] abbreviates: daily intraperitoneal injections.

Structures are written as SMILES.

As for `O=C(Nc1ccccc1Cl)c1cnc2ccc(C3CCNCC3)cn12` [A38], in the experiment with EAE in C57BL/6 mice (setting [2]), the T-cell response entry was “did not affect T-cell response”; the “astrocyte and microglial expression of transcriptional modules associated with CNS inflammation and neurodegeneration (RNA-seq)” value is “decreased”; the “axonal loss (histopathology)” value is “reduced demyelination, and axonal loss”; the “demyelination (histopathology)” value was “reduced demyelination”. The “recruitment of Ly6C^Hi pro-inflammatory monocytes to the CNS” value with EAE in C57BL/6 mice (setting [2]) is on record as “reduced the recruitment”. Besides, the EAE clinical scores result in the experiment with EAE in C57BL/6 mice (20 mg/kg i.p. twice a day from the peak of the disease) is “ameliorated EAE, as indicated by the reduction in clinical scores”. The “expression of genes related to ROS metabolic processes in astrocytes isolated from treated EAE mice” value in the experiment on EAE in C57BL/6 mice (FIG. 5D) was “a decrease in the expression”. In addition, the “therapeutic effects of A38 concomitant with EphB3 knockdown in astrocytes” value with EAE in C57BL/6 mice (compared with either intervention alone) is listed as “did not further increase the therapeutic effects”. Moreover, in the experiment on EAE in C57BL/6 mice (setting [3]), the “T cell counts in the spleen” value is “unchanged” and the “pro-inflammatory monocytes in the CNS” value is recorded as “decrease”. Further, the “course of EAE, preventive treatment” value in the experiment with EAE in C57BL/6 mice (daily intraperitoneal injections from day 3 (priming phase)) is given as “did not alter the course of EAE”. Besides, the “clinical course of EAE, treatment during the chronic phase” value in the experiment on EAE in C57BL/6 mice (daily intraperitoneal injections from day 21) is on record as “ameliorated the clinical course significantly”. Also, the “IFN-γ and IL-17 producing T cells in the CNS” value in the experiment on EAE in C57BL/6 mice (daily intraperitoneal injections, chronic phase) is on record as “significant decrease”. In experiment [1], the “116 expression in astrocytes (qPCR)” value is given as “reduced 116 expression in astrocytes in a dose-dependent manner”, the “production of CCL2 (ELISA)” value was “decreased”, the “production of IL-6 (ELISA)” value was “decreased” and the “production of TNFα (ELISA)” value is “decreased”.
